Laboratory results from publication PMC12841663, “Antiprotozoal Potential of Cultivated Geranium macrorrhizum Against Giardia duodenalis, Trichomonas gallinae and Leishmania infantum” (International Journal of Molecular Sciences, 2026).
≈ marks a conversion by molar mass, not a printed value. Entries after “also recorded” stand apart in the source; their conditions may differ.

How the values were obtained:
[1] = system: G. duodenalis trophozoites; test: Morphological evaluation by light microscopy (Diff-Quik), G. duodenalis; format: cell-based, Giardia duodenalis; details: germacrone 100 µg/mL
Protocol: Each well contained 435 μL of culture medium and 15 μL of the test or control compounds at the above-mentioned concentrations. The chamber included: two wells for growth control (0.5 h, 48 h), two for germacrone (0.5 h, 48 h), and two for metronidazole (0.5 h, 48 h). Incubation was performed at 37 °C. At each time point, the medium was removed, wells were dried, fixed, and stained with Diff-Quik. Morphological changes were analyzed using light microscopy. Experiments were performed as independent biological replicates on different plates, and one Diff-Quik stained smear was obtained per condition and time point per biological replicate. For morphometric analysis, a total of 30 trophozoites per condition and time point were measured across the independent biological replicates and were selected by consecutive sampling during a predefined serpentine (zig-zag) scan across the preparation. Up to two eligible trophozoites per field (intact, well-focused and non-overlapping) were measured in sequential fields until n = 30 was reached, avoiding subjective selection of “representative” cells. Overlapping, partially visible, out-of-focus, edge-of-field, or debris-obscured trophozoites were excluded a priori. Trophozoites were photographed using a researcher's mobile phone mounted to the microscope ocular. Calibration was performed at the same magnification using a stage micrometre and applied in ImageJ v. 1.54d. One Diff-Quik stained smear was obtained per condition/time point per biological replicate Cell length, cell width, cell surface, nuclear length, nuclear width, axoneme (only Giardia), and length of axostyle (only T. gallinae) were measured with ImageJ software, and the data were recorded in an Excel database for statistical analysis. The Shapiro-Wilk test was used to assess the normality of the morphological variables. When data followed a normal distribution, Student's t-test was applied; otherwise, non-parametric tests, such as the Mann-Whitney U test, was used. Values of p < 0.05 were considered significant. For the morphological analysis, the mean, standard deviation, median, and interquartile range were calculated using SPSS version 20 (IBM Corp., Armonk, NY, USA).

[2] = system: intracellular amastigotes of L. infantum; test: Infection index of DH82 macrophages infected with L. infantum (intracellular amastigotes); format: cell-based, Leishmania infantum; details: for nº Amastigotes/Infected Cell / % Infected Cells / Infection Index: DH82 macrophages, 48 h
Protocol: (§1) Anti-Leishmania (AL) activity was assessed on L. infantum promastigotes (MCAN/ES/98/LLM-722), kindly provided by Dr. J.M. Requena from CBM-CSIC, as well as on L. infantum (M/CAN/ES/96/BCN150 zymodeme MON-1), strain isolated from a dog with active visceral leishmaniasis. L. infantum promastigotes (MCAN/ES/98/LLM-722) were cultured in RPMI medium supplemented with 15% FBS and 10 μg/mL of hemin (Acros Organics, Madrid, Spain), grown at 26 °C. Promastigotes in logarithmic growth were seeded in 96-well flat-bottom plates at a volume of 100 μL of culture per well and incubated for 48 h. Promastigotes for macrophage infection (M/CAN/ES/96/BCN150 zymodeme MON-1) were maintained at 26 °C in Schneider’s insect medium (Lonza, Basel, Switzerland) supplemented with 10% FBS and 100 U/mL penicillin and 100 μg/mL streptomycin (Lonza, Basel, Switzerland) (Pen-Strep). Promastigotes in the stationary phase of growth (5–6 days) were washed twice in phosphate-buffered saline at 2700× g for 10 min at 22 °C and employed for macrophage infection.
Canine DH82 (ATCC®-CRL-10389TM) macrophages were maintained in Dulbecco’s modified Eagle’s medium (DMEM) (Thermo Fisher Scientific, Waltham, MA, USA) supplemented with 10% heat-inactivated FBS (Thermo Fisher Scientific, Waltham, MA, USA), and Pen-Strep at 37 °C in 5% CO2.
DH82 cells (5 × 10^4 per well) were seeded in LabTek culture chamber slides (Thermo Scientific, Nunc™, Roskilde, Denmark) and incubated overnight at 37 °C and 5% CO2. On the following day, macrophages were infected with L. infantum stationary phase-promastigotes at a ratio of 5:1 parasites/macrophage and after 4 h of incubation at 37 °C, a time point that reflects initial infection, extracellular promastigotes were removed by washing. Germacrone was added at varying concentrations (10, 50 and 100 μg/mL) and macrophages were incubated in fresh medium for 48 h at 37 °C and 5% CO2. After Giemsa staining, cells were mounted with Vitro-Clud (Deltalab SLU, Barcelona, Spain), and 400 macrophages were counted in duplicate in a microscope Olympus BX41 (Olympus Corporation, Tokyo, Japan). The percentage of infected macrophages and the mean of the number of amastigotes per infected macrophage (defined as the intensity of infection) were evaluated. The infection index was calculated by multiplication of both parameters to account for the overall parasite load.

[3] = system: L. infantum promastigotes; test: Anti-Leishmania activity assay on promastigotes (MTT viability); format: cell-based; details: pure compounds
Protocol: as §1
EOs and pure compounds were solved in DMSO (Sigma, Madrid, Spain) (<1% final concentration). […] Trophozoites/promastigotes viability was assessed using the modified MTT colorimetric assay, as described previously in the literature, with results further validated by microscopic examination. The plate was analyzed in a spectrophotometer at a wavelength of 570 nm. The percentage of antiparasitic activity was calculated as growth inhibition, using the following formula: % AT = 100 − [(Ap − Ab) ÷ (Ac − Ab)] × 100, where Ap is the absorbance of the tested product, Ab the absorbance of the blank and Ac the absorbance of the control wells (culture without treatment).
Pure compounds were tested using the same method, although at concentrations of 100, 75, 50, 25, 10, and 1 μg/mL. Metronidazole (Acros Organics, Madrid, Spain) served as a reference compound for anti-Giardia activity and Anti-Trichomonas activity and amphotericin B for anti-Leishmania activity.
Data was analyzed using STATGRAPHICS Centurion XIX (https://www.statgraphics.com) (Statgraphics Technologies, Inc., The Plains, VA, USA). The mammalian cells and trophozoites viability were tested with each compound in a dose–response experiment to calculate their relative potency (CC50 or IC50 value, respectively). IC50 (μg/mL) expresses the dose of EOs, extracts or pure compounds needed to produce 50% mortality of trophozoites, while CC50 (μg/mL) expresses the dose of compounds necessary to produce 50% mortality of Vero cells.

[4] = metronidazole 100 µg/mL, 0.5 and 48 h, control DMSO 1%

SMILES: CC(C)=C1C/C=C(\C)CC/C=C(\C)CC1=O [Compound 2, germacrone]
- axoneme length vs control [1, 4]: decreased at 0.5 h; also recorded: at 48 h, germacrone caused an increase
- cell length vs control [1, 4]: significant reductions at 30 min
- cell width vs control [1, 4]: no differences were observed at 0.5 h with germacrone, but after 48 h, a significant increase
- nuclear length (left and right) vs control [1, 4]: decreased significantly with germacrone at 0.5 h and later increased after 48 h
- nuclear width vs control [1, 4]: reduction at 0.5 h, followed by an increase at 48 h
- morphological changes (light microscopy) ([1]; 48 h of exposure, Diff-Quik): less defined cytoplasm and nucleus of the cells
- nº Amastigotes/Infected Cell ([2]; 10 µg/mL): 2.4 ± 1.1
- % Infected Cells ([2]; 10 µg/mL, control of infection 42.8, listed as Germacrone (2)): 25.9 ± 8.3 %
- % Infected Cells ([2]; 10 µg/mL, control of infection 42.8, listed as germacrone (2)): 25.9%
- Infection Index ([2]; 10 µg/mL, control of infection 152.1, listed as Germacrone (2)): 61.0 ± 9.4
- Infection Index ([2]; 10 µg/mL, control of infection 152.1, listed as germacrone (2)): 61.0
- reduction of the infection index ([2]; 10 µg/mL, from 152.1 (control) to 61.0): more than 50%
- % Infected Cells ([2]; 50 µg/mL): dead cells
- Infection Index ([2]; 50 µg/mL): dead cells
- nº Amastigotes/Infected Cell ([2]; 50 µg/mL): dead cells
- % Infected Cells ([2]; 100 µg/mL): dead cells
- Infection Index ([2]; 100 µg/mL): dead cells
- nº Amastigotes/Infected Cell ([2]; 100 µg/mL): dead cells
- IC50 [3]: 37.5 µg/mL (≈ 172 µM)
